Results taken from PubChem BioAssay (NCI).
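Exposure lasted 48 hours, with cells grown in 96-well plates and compounds tested at five concentrations. TGI marks complete inhibition of growth.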 Where a SMILES comes first, the peptide text is derived from it. The star is where a group is joined. Pentanoyl = CCCCC(=O)*; Boc = CC(C)(C)OC(=O)*

What was measured:
Assay in all cases: inhibition of tumour cell growth, NCI panel, 48 h
MDA-N = tested on: MDA-N
HOP-62 NSCLC = tested on: HOP-62 NSCLC
NCI-H23 lung = tested on: NCI-H23 lung
COLO 205 colon = tested on: COLO 205 colon
IGROV1 ovarian = tested on: IGROV1 ovarian
U251 CNS = tested on: U251 CNS
SF-539 CNS = tested on: SF-539 CNS
HCT-15 colon = tested on: HCT-15 colon
OVCAR-3 ovarian = tested on: OVCAR-3 ovarian
HS 578T breast = tested on: HS 578T breast
T-47D breast = tested on: T-47D breast
SF-268 CNS = tested on: SF-268 CNS
DU-145 prostate = tested on: DU-145 prostate
MDA-MB-435 = tested on: MDA-MB-435
OVCAR-5 ovarian = tested on: OVCAR-5 ovarian
OVCAR-4 ovarian = tested on: OVCAR-4 ovarian
MDA-MB-231 breast = tested on: MDA-MB-231 breast
SK-MEL-2 melanoma = tested on: SK-MEL-2 melanoma
UACC-62 melanoma = tested on: UACC-62 melanoma
SR leukemia = tested on: SR leukemia

Row | SMILES | TGI (MDA-N) [µM] | TGI (HOP-62 NSCLC) [µM] | TGI (NCI-H23 lung) [µM] | TGI (COLO 205 colon) [µM] | TGI (IGROV1 ovarian) [µM] | TGI (U251 CNS) [µM] | TGI (SF-539 CNS) [µM] | TGI (HCT-15 colon) [µM] | TGI (OVCAR-3 ovarian) [µM] | TGI (HS 578T breast) [µM] | TGI (T-47D breast) [µM] | TGI (SF-268 CNS) [µM] | TGI (DU-145 prostate) [µM] | TGI (MDA-MB-435) [µM] | TGI (OVCAR-5 ovarian) [µM] | TGI (OVCAR-4 ovarian) [µM] | TGI (MDA-MB-231 breast) [µM] | TGI (SK-MEL-2 melanoma) [µM] | TGI (UACC-62 melanoma) [µM] | TGI (SR leukemia) [µM]
1 | CCCCC(=O)Oc1ccc(CC(NC(=O)OC(C)(C)C)C(=O)NC(C)C(=O)NC(Cc2ccccc2)C(=O)NCC(N)=O)cc1 (stereo not given) (Boc-Y(Pentanoyl)AFG-NH2; configuration not given here) | 65.8 | 50 | > 100 | 37.6 | 53.7 | 40.6 | > 100 | > 100 | 39.2 | > 100 | 79 | > 100 | > 100 | 45.1 | 52 | > 100 | 41.6 | 41.1 | 45.5 | –
2 | CCOC(=O)C(C)(C(=O)OCC)/C(Cl)=C\Cl | > 100 | > 100 | > 100 | > 100 | > 100 | – | > 100 | – | > 100 | > 100 | > 100 | > 100 | > 100 | > 100 | > 100 | > 100 | > 100 | – | > 100 | > 100
3 | COc1ccc(/C=C2\N=C3Sc4c(nc[nH]c4=O)N3C2=O)cc1 | > 100 | > 100 | > 100 | > 100 | > 100 | > 100 | > 100 | > 100 | > 100 | > 100 | > 100 | > 100 | > 100 | > 100 | > 100 | > 100 | > 100 | > 100 | – | –
4 | COc1cc(=O)n2c3ccccc3n(C)c2c1C#N | > 100 | > 100 | > 100 | > 100 | > 100 | > 100 | > 100 | > 100 | > 100 | > 100 | – | > 100 | > 100 | > 100 | > 100 | > 100 | > 100 | > 100 | > 100 | > 100
5 | COc1ccc(OC)c(C23CCCC(C2)N(C)CC3)c1 (stereo not given) | 74.6 | – | > 100 | – | – | 27.6 | – | > 100 | 46.7 | > 100 | > 100 | > 100 | 91.9 | 37.9 | > 100 | 62.1 | > 100 | 53 | 46 | 44.7
6 | O=C(O)c1cc2cc(c1)N=Cc1ccccc1OCc1cccc(n1)COc1ccccc1C=N2 | 9.82 | > 25 | > 25 | > 25 | > 25 | > 25 | > 25 | > 25 | 13.2 | 13.1 | – | > 25 | > 25 | 8.25 | > 25 | > 25 | > 25 | > 25 | > 25 | > 25
7 | C=CCC(CC=O)(C(=O)OCC)C(=O)OCC | > 100 | > 100 | > 100 | > 100 | > 100 | > 100 | > 100 | > 100 | > 100 | > 100 | – | > 100 | > 100 | > 100 | > 100 | > 100 | > 100 | > 100 | > 100 | > 100
8 | O=C1C(Cl)=C(N2C(=O)CCCC2=O)C(=O)c2ccccc21 | 31 | > 100 | 36 | 19.1 | 30.1 | 66.1 | 38 | 25.6 | > 100 | > 100 | 95.7 | > 100 | 30.2 | 44.9 | 38.1 | – | 50.5 | 49 | 37.4 | 57.1
9 | COC(=O)[C@H]1C[C@H]1NC(=O)C(CC(=O)OCc1ccccc1)NC(=O)OCc1ccccc1 (stereo not given in full) | > 100 | – | > 100 | 43.2 | > 100 | > 100 | > 100 | > 100 | – | > 100 | 98.4 | > 100 | > 100 | 69.8 | > 100 | – | > 100 | 56.9 | – | > 100
10 | O=c1oc2ccccc2c(O)c1C1c2c(c3ccccc3oc2=O)Oc2c1c(=O)oc1ccccc21 | 37.3 | > 100 | 89.2 | > 100 | > 100 | > 100 | – | > 100 | > 100 | > 100 | > 100 | 94 | > 100 | 60 | – | > 100 | 71.2 | > 100 | 47.5 | –
11 | Cc1ccc2nc(-c3ccc(-n4c(C)nc(=O)c(-c5ccc(F)cc5)c4C)cc3)sc2c1 | 32.2 | 45.5 | 32.2 | 20.5 | 31.4 | 30.7 | – | 34.4 | 28.4 | 96.9 | 17.2 | 53.9 | 30 | 32.2 | 35.9 | 56.6 | 28.8 | 35.4 | – | 29.5
12 | O=C1/C(=C/c2ccc(Cl)cc2)N=C(c2ccccc2)N1c1nc2ccccc2s1 | > 100 | > 100 | > 100 | – | > 100 | > 100 | > 100 | > 100 | > 100 | 75.7 | > 100 | > 100 | > 100 | > 100 | > 100 | > 100 | > 100 | 88.2 | – | > 100
13 | COc1ccc2c(c1)c1c(n2CCN(C)C)-c2cccc(OC)c2CC1 | 26.1 | 27.6 | 36.9 | 27.7 | 39 | 32.6 | – | 45.9 | 30.9 | 33.5 | 27.7 | 38.9 | 39.5 | 28 | 29.8 | 46.9 | 35.2 | 30.2 | 34.6 | –
14 | COC(=O)C1C(OC(=O)C(Cl)(c2ccccc2)c2ccccc2)CC2CCC1N2C (stereo not given) | > 100 | > 100 | > 100 | > 100 | > 100 | > 100 | > 100 | > 100 | > 100 | – | > 100 | > 100 | > 100 | > 100 | > 100 | – | > 100 | – | > 100 | > 100
15 | CC(=O)OC(C)c1cc2c(s1)C(=O)c1scc(C(C)OC(C)=O)c1C2=O (stereo not given) | 0.256 | 0.44 | 0.398 | 1 | 2.04 | 1.66 | 0.36 | 0.381 | – | 1.41 | 2.1 | 0.504 | 0.317 | 0.0815 | 2.74 | 0.583 | – | – | 0.418 | –
16 | O=C1C(C(c2ccccc2)N2CCOCC2)=C(O)C(c2ccccc2)N1c1ccccc1 (stereo not given) | > 10 | > 10 | > 10 | > 10 | > 10 | > 10 | > 10 | > 10 | > 10 | > 10 | > 10 | > 10 | > 10 | > 10 | > 10 | – | > 10 | > 10 | > 10 | –
17 | CN1C(=O)N/C(=C\c2ccc(S(=O)(=O)N/N=C\C(O)C(O)C(O)CO)cc2)C1=O (stereo not given) | > 100 | > 100 | > 100 | > 100 | > 100 | > 100 | – | > 100 | > 100 | > 100 | > 100 | > 100 | > 100 | > 100 | > 100 | > 100 | > 100 | > 100 | > 100 | > 100
18 | CC(=O)OC[C@@H]1[C@H]2CC[C@]3(C)[C@@H](OC(C)=O)CC[C@H]3[C@@H]2CC[C@H]1C1(C)SCCS1 | > 25 | > 25 | > 25 | > 25 | > 25 | > 25 | > 25 | > 25 | > 25 | > 25 | > 25 | > 25 | > 25 | > 25 | > 25 | > 25 | > 25 | – | – | > 25
19 | C1=Nc2sc3c(c2C2=NCCN12)CCCC3 | 35.5 | 37.2 | 29.3 | 53.2 | 30.8 | 41.7 | – | 30.4 | 32.3 | 51.8 | 39.9 | 52.1 | 30.1 | 41 | 35.9 | 42.1 | 30.3 | 20.7 | 29 | > 100
20 | O=C(O)c1ccc([N+]2=Cn3c(nc4ccccc43)C2)cc1 | > 100 | > 100 | > 100 | > 100 | > 100 | > 100 | – | > 100 | > 100 | > 100 | > 100 | > 100 | > 100 | > 100 | > 100 | > 100 | > 100 | > 100 | > 100 | –
21 | COC(=O)[C@]12CSC[C@H]1C[C@H](c1ccccc1OC)N2 | > 100 | > 100 | > 100 | > 100 | > 100 | > 100 | > 100 | > 100 | > 100 | – | > 100 | > 100 | > 100 | > 100 | > 100 | > 100 | > 100 | > 100 | > 100 | > 100
22 | CCC(=O)N1NC(=O)C(CC)(CC)C1=O | > 100 | > 100 | > 100 | > 100 | > 100 | > 100 | – | > 100 | > 100 | > 100 | > 100 | > 100 | > 100 | > 100 | > 100 | > 100 | > 100 | > 100 | > 100 | > 100
23 | Cc1nc2ccccc2c(=O)n1NC(=O)c1ccc([N+](=O)[O-])cc1 | > 100 | > 100 | > 100 | > 100 | > 100 | > 100 | > 100 | – | > 100 | > 100 | > 100 | > 100 | > 100 | > 100 | > 100 | > 100 | > 100 | – | > 100 | > 100
24 | O1C2C1C1OC1C1OC1C1OC21 (stereo not given) | > 100 | > 100 | > 100 | > 100 | – | > 100 | – | > 100 | – | > 100 | > 100 | > 100 | > 100 | > 100 | > 100 | > 100 | > 100 | > 100 | > 100 | > 100
25 | CCn1c(-c2ccc(F)cc2)nc2c1C(=O)c1ccccc1C2=O | > 100 | > 100 | > 100 | > 100 | > 100 | > 100 | > 100 | > 100 | > 100 | > 100 | > 100 | > 100 | > 100 | > 100 | > 100 | > 100 | > 100 | – | > 100 | > 100
